Results as given in US10219516B2, “Molecules having pesticidal utility, and intermediates, compositions, and processes, related thereto” (priority 2015, dated 2019).
Like-named read-outs stand apart in the source and are kept apart here.

Assays:
Format in all cases: in vivo
[1] = tested on: Beet Armyworm (Spodoptera exigua, LAPHEG); assay: Bioassay on Beet Armyworm (BAW), 128-well diet tray assay
Summary of the method: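 Second-instar larvae, one to five per well, placed on artificial diet surface-treated with 50 μg/cm^2 compound applied in 90:10 acetone-water and dried. Held 5–7 days at 25° C., 14:10 light-dark. Percent mortality recorded per well and averaged over eight wells.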

[2] = tested on: Cabbage Looper (Trichoplusia ni, TRIPNI); assay: Bioassay on Cabbage Looper (CL), 128-well diet tray assay; conditions: Trichoplusia ni
Summary of the method: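 Test molecule is dissolved in 90:10 acetone-water and applied at 50 μg/cm^2 onto artificial diet, then dried. One to five second-instar larvae go into each of eight wells. Trays, sealed but vented, stay at 25° C., 14:10 light-dark, five to seven days, after which mortality is averaged.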

[3] = tested on: Yellow Fever Mosquito (Aedes aegypti, AEDSAE); assay: Bioassay on Yellow Fever Mosquito (YFM), 96-well plate larval assay; conditions: for YFM rating: Yellow Fever Mosquito, 96-well plate larval assay; for YFM (Biological Results, rating): Species YFM (Yellow Fever Mosquito)
Summary of the method: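 Aedes aegypti larvae (about 1 day old) in liver-powder water were added to plates dispensed from DMSO master plates (4000 ppm stock) diluted with 90:10 water/acetone; six replicate plates per master. Lidded plates were held at room temperature for 3 days, then each well was scored for mortality.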

[4] = Beet Armyworm, 128-well diet tray assay, read-out: BAW rating
[5] = Cabbage Looper, 128-well diet tray assay, read-out: CL rating
[6] = Species BAW (Beet Armyworm), read-out: BAW (Biological Results, rating)
[7] = Species CL (Cabbage Looper), read-out: CL (Biological Results, rating)

Compound: C#Cc1ccc([C@H]2[C@H](C(=O)Nc3ccc(Cl)c(C(=O)Nc4ccc(F)cc4C#N)c3)C2(Cl)Cl)cc1Cl (relative stereo) [F401, 2-chloro-N-(2-cyano-4-fluorophenyl)-5-(trans-2,2-dichloro-3-(3-chloro-4-ethynylphenyl)cyclopropane-1-carboxamido)benzamide]
- pest or weed control at 50 µg/cm2 [1, 4]: 50 to 100%
- pest or weed control at 50 µg/cm2 [2, 5]: 50 to 100%
- YFM rating [3]: A (80-100)

Compound: N#Cc1cc(F)ccc1NC(=O)c1cccc(NC(=O)[C@H]2[C@H](c3ccc(Cl)c(Cl)c3)C2(Cl)Cl)c1 (relative stereo) [F268, trans-N-(2-Cyano-4-fluorophenyl)-3-(2,2-dichloro-3-(3,4-dichlorophenyl)cyclopropane-1-carboxamido)benzamide]
- pest or weed control at 50 µg/cm2 [1, 6]: 50 to 100%
- pest or weed control at 50 µg/cm2 [2, 7]: 50 to 100%
- YFM (Biological Results, rating) [3]: A (80-100)

Compound: N#Cc1cc(Cl)cc([C@H]2[C@H](C(=O)Nc3ccc(Cl)c(C(=O)Nc4ccc(F)c(N)c4F)c3)C2(Cl)Cl)c1 (relative stereo) [F344, trans-N-(3-Amino-2,4-difluorophenyl)-2-chloro-5-(2,2-dichloro-3-(3-chloro-5-cyanophenyl)cyclopropane-1-carboxamido)benzamide]
- pest or weed control at 50 µg/cm2 [1, 6]: 50 to 100%
- pest or weed control at 50 µg/cm2 [2, 7]: 50 to 100%
- YFM (Biological Results, rating) [3]: A (80-100)

Compound: COc1cc(NC(=O)c2cc(NC(=O)C3C(c4cc(Cl)cc(Cl)c4)C3(Cl)Cl)ccc2Cl)ccc1Cl (stereo not drawn) [PF114, 2-Chloro-N-(4-chloro-3-methoxyphenyl)-5-(trans)-2,2-dichloro-3-(3,5-dichlorophenyl)cyclopropane-1-carboxamido)benzamide]
- pest or weed control at 50 µg/cm2 [1, 4]: 50 to 100%
- pest or weed control at 50 µg/cm2 [2, 5]: 50 to 100%
- YFM rating [3]: A (80-100)

Compound: Cc1cccc(NC(=O)c2cc(NC(=O)[C@H]3[C@H](c4cc(Cl)cc(Cl)c4)C3(Cl)Cl)ccc2Cl)c1C#N (relative stereo) [F304, 2-Chloro-N-(2-cyano-3-methylphenyl)-5-(trans-2,2-dichloro-3-(3,5-dichlorophenyl)cyclopropane-1-carboxamido)benzamide]
- pest or weed control at 50 µg/cm2 [1, 6]: 50 to 100%
- pest or weed control at 50 µg/cm2 [2, 7]: 50 to 100%
- YFM (Biological Results, rating) [3]: A (80-100)

Compound: O=C(Nc1ccc([N+](=O)[O-])cc1F)c1cc(NC(=O)[C@H]2[C@H](c3cc(Cl)cc(Cl)c3)C2(Cl)Cl)ccc1Cl (relative stereo) [PF74, trans-2-Chloro-5-(2,2-dichloro-3-(3,5-dichlorophenyl)cyclopropane-1-carboxamido)-N-(2-fluoro-4-nitrophenyl)benzamide]
- pest or weed control at 50 µg/cm2 [1, 4]: 50 to 100%
- pest or weed control at 50 µg/cm2 [2, 5]: 50 to 100%
- YFM rating [3]: A (80-100)

Compound: CN(C(=O)c1cc(NC(=O)[C@H]2[C@H](c3cc(Cl)c(Cl)cc3Cl)C2(Cl)Cl)ccc1Cl)c1ccc(F)cc1 (relative stereo) [F74, trans-2-Chloro-5-(2,2-dichloro-3-(2,4,5-trichlorophenyl)cyclopropane-1-carboxamido)-N-(4-fluorophenyl)-N-methylbenzamide]
- pest or weed control at 50 µg/cm2 [1, 6]: 50 to 100%
- pest or weed control at 50 µg/cm2 [2, 7]: 50 to 100%
- YFM (Biological Results, rating) [3]: B (More than 0-Less than 80)

Compound: N#Cc1cc(F)ccc1NC(=O)c1cc(NC(=O)[C@H]2[C@H](c3cc(C(F)(F)F)cc(C(F)(F)F)c3)C2(Cl)Cl)ccc1Cl (relative stereo) [F308, trans-5-(3-(3,5-bis(Trifluoromethyl)phenyl)-2,2-dichlorocyclopropane-1-carboxamido)-2-chloro-N-(2-cyano-4-fluorophenyl)benzamide]
- pest or weed control at 50 µg/cm2 [1, 6]: 50 to 100%
- pest or weed control at 50 µg/cm2 [2, 7]: 50 to 100%
- YFM (Biological Results, rating) [3]: A (80-100)

Compound: O=C(Nc1ccc(Cl)cc1F)c1cc(NC(=O)C2C(c3cc(Cl)cc(Cl)c3)C2(Cl)Cl)ccc1Cl (stereo not drawn) [PF116, 2-Chloro-N-(4-chloro-2-fluorophenyl)-5-(trans)-2,2-dichloro-3-(3,5-dichlorophenyl)cyclopropane-1-carboxamido)benzamide]
- pest or weed control at 50 µg/cm2 [1, 4]: 50 to 100%
- pest or weed control at 50 µg/cm2 [2, 5]: 50 to 100%
- YFM rating [3]: B (More than 0-Less than 80)

Compound: O=C(Nc1nc2c(Cl)cccc2s1)c1cc(NC(=O)C2C(c3cc(Cl)cc(Cl)c3)C2(Cl)Cl)ccc1Cl (stereo not drawn) [F443, 2-Chloro-N-(4-chlorobenzo[d]thiazol-2-yl)-5-(trans)-2,2-dichloro-3-(3,5-dichlorophenyl)cyclopropane-1-carboxamido)benzamide]
- pest or weed control at 50 µg/cm2 [1, 4]: 50 to 100%
- pest or weed control at 50 µg/cm2 [2, 5]: 50 to 100%
- YFM rating [3]: B (More than 0-Less than 80)

Compound: Nc1cncc(NC(=O)c2cc(NC(=O)[C@H]3[C@H](c4ccc(Cl)c(Cl)c4)C3(Cl)Cl)ccc2Cl)c1 [F363, N-(5-Aminopyridin-3-yl)-2-chloro-5-((1R,3R)-2,2-dichloro-3-(3,4-dichlorophenyl)cyclopropane-1-carboxamido)benzamide]
- pest or weed control at 50 µg/cm2 [1, 6]: 50 to 100%
- pest or weed control at 50 µg/cm2 [2, 7]: 50 to 100%
- YFM (Biological Results, rating) [3]: A (80-100)

Compound: CC(=O)c1ccc(NC(=O)c2cc(NC(=O)[C@H]3[C@H](c4cc(Cl)cc(Cl)c4)C3(Cl)Cl)ccc2Cl)c(F)c1 (relative stereo) [PF78, trans-N-(4-acetyl-2-fluorophenyl)-2-chloro-5-(2,2-dichloro-3-(3,5-dichlorophenyl)cyclopropane-1-carboxamido)benzamide]
- pest or weed control at 50 µg/cm2 [1, 4]: 50 to 100%
- pest or weed control at 50 µg/cm2 [2, 5]: 50 to 100%
- YFM rating [3]: A (80-100)

Compound: O=C(Nc1c(F)cccc1F)c1cc(NC(=O)[C@H]2[C@H](c3ccc(C(F)(F)F)cc3)C2(Cl)Cl)ccc1Cl (relative stereo) [F83, trans-2-Chloro-5-(2,2-dichloro-3-(4-(trifluoromethyl)phenyl)cyclopropane-1-carboxamido)-N-(2,6-difluorophenyl)benzamide]
- pest or weed control at 50 µg/cm2 [1, 6]: 50 to 100%
- pest or weed control at 50 µg/cm2 [2, 7]: 50 to 100%
- YFM (Biological Results, rating) [3]: A (80-100)

Compound: C=C(F)c1cc(NC(=O)c2cc(NC(=O)[C@H]3[C@H](c4cc(Cl)cc(Cl)c4)C3(Cl)Cl)ccc2Cl)cnc1F (relative stereo) [F400, 2-Chloro-5-(trans-2,2-dichloro-3-(3,5-dichlorophenyl)cyclopropane-1-carboxamido)-N-(6-fluoro-5-(1-fluorovinyl)pyridin-3-yl)benzamide]
- pest or weed control at 50 µg/cm2 [1, 4]: 50 to 100%
- pest or weed control at 50 µg/cm2 [2, 5]: 50 to 100%
- YFM rating [3]: A (80-100)

Compound: O=C(Nc1cc(F)ccc1F)c1cc(NC(=O)C2C(c3cc(Cl)cc(Cl)c3)C2(Cl)Cl)ccc1Cl (stereo not drawn) [PF118, 2-Chloro-5-(trans)-2,2-dichloro-3-(3,5-dichlorophenyl)cyclopropane-1-carboxamido)-N-(2,5-difluorophenyl)benzamide]
- pest or weed control at 50 µg/cm2 [1, 4]: 50 to 100%
- pest or weed control at 50 µg/cm2 [2, 5]: 50 to 100%
- YFM rating [3]: B (More than 0-Less than 80)

Compound: Cc1cc(NC(=O)OC(C)(C)C)ccc1NC(=O)c1cc(NC(=O)[C@H]2[C@H](c3ccc(Cl)c(Br)c3)C2(Cl)Cl)ccc1Cl (relative stereo) [F334, tert-Butyl (4-(5-(trans-3-(3-bromo-4-chlorophenyl)-2,2-dichlorocyclopropane-1-carboxamido)-2-chlorobenzamido)-3-methylphenyl)carbamate]
- pest or weed control at 50 µg/cm2 [1, 6]: 50 to 100%
- pest or weed control at 50 µg/cm2 [2, 7]: 50 to 100%
- YFM (Biological Results, rating) [3]: A (80-100)
